In publication PMC3303804, “Inflammation-Associated Nitrotyrosination Affects TCR Recognition through Reduced Stability and Alteration of the Molecular Surface of the MHC Complex” (PLoS ONE, 2012):
“Also recorded” adds a separate entry of the source.

Legend:
H-2K^b [1] = target: T1, H-2K^b (Mus musculus, UniProt P01901); assay: Peptide-MHC binding affinity assay, stabilization of H-2K^b on TAP-deficient RMA-S cells; details: 5×10^5, peptide overnight (12 hours) 26°C in serum free AIM-V, then 37°C 60 min without peptide, anti-H-2K^b AF6-88.5, flow cytometry, MFI relative to no peptide, repeated three times
H-2K^b [2] = target: T1, H-2K^b; assay: MHC complex stability, circular dichroism thermal denaturation; type: binding; details: for Tm (melting temperature): soluble H-2K^b/peptide complex, CD 218 nm, 30-75°C, 48°C/hour, 20 mM K2HPO4/KH2PO4 pH 7.5, protein 0.15 to 0.25 mg/ml, Tm at 50% denaturation
H-2K^b [3] = target: T1, H-2K^b; assay: MHC complex stability, Thermofluor (differential scanning fluorimetry); type: binding; details: H-2K^b/peptide complex 0.25 mg/mL, 10 mM Na^+ HEPES pH 7.3, 150 mM NaCl, SYPRO Orange, 20 to 95°C at 1°C/min; maximum of first derivative; average of three distinct melting curves
Method: Differential scanning fluorimetry experiments were carried out using an iQ5 real-time PCR detection system (Bio-Rad). 96-well PCR plates were filled with 23 µl of MHC solution (0.25 mg/mL) in 10 mM Na^+ HEPES buffer (pH 7.3), 150 mM NaCl per well. Finally, the fluorophore (2 µl of 125× SYPRO Orange (Sigma S5692)) was added to each well and the plate was sealed with optical sealing tape (Bio-Rad). An iQ5 Real-Time PCR Detection System, calibrated with External Well factor solution was used to monitor the changes in fluorescence intensity of the fluorophore. The temperature of the samples was changed from 20 to 95°C at a heating rate of 1°C/min and the fluorescence was recorded every 0.2°C. The melting temperature (Tm) of each melting curve was calculated as the maximum of the first derivative of the curve. The average Tm value of each protein was determined from three distinct melting curves.

T cell hybridoma 24H1 = tested on: T cell hybridoma 24H1; design: method as in PMID 18424715; details: cited from earlier work; for recognition by T cell hybridoma 24H1: H-2K^b/peptide or H-2K^b+ target cells coated with peptide
T cell hybridoma 4C8 = details: H-2D^b context; 4C8 is H-2D^b/NY-gp33-specific; cited from earlier work
Text: A significant amount of the overall CD8^+ T cell response to LCMV is dominated by very few viral epitopes, comprising the H-2D^b-and H-2K^b- restricted peptide gp33–41 (hereafter referred to as gp33; […]) and the H-2K^b-restricted peptide gp34–41 (gp34; […]), [39]. Both gp33 and gp34 contain a single tyrosine residue at positions ...

[4] = average of at least two independent measurements, value ± spread printed in Figure 4B
[5] = average of at least two measurements from two independent refolding assays

T1 sequence (P01901 whole entry, looked up): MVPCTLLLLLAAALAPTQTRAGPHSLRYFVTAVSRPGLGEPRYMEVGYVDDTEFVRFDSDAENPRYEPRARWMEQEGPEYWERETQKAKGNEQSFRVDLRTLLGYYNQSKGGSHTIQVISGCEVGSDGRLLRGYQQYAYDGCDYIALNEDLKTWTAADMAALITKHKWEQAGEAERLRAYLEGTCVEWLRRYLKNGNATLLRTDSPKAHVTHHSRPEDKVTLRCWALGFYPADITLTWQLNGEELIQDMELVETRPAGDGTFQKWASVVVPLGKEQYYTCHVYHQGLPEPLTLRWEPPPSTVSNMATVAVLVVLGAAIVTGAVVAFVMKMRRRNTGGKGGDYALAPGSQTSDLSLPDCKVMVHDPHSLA

Row | Substance | binding affinity to H-2K^b (cell surface stabilization) (H-2K^b [1]) | capacity to stabilize H-2K^b complexes (H-2K^b [2]; CD thermal denaturation, compared to gp34) | decrease in Tm of H-2K^b/NY-gp34 versus H-2K^b/gp34 (H-2K^b [2]; CD, pH 7.5, lower than for H-2K^b/gp34 (nearly)) | Tm (melting temperature) (H-2K^b [2]; [4]) | Tm (melting temperature) (H-2K^b [2]; [5]) | Tm (melting temperature) (H-2K^b [3]) | relative level of recognition by 24H1, NY-gp34 versus NY-gp33 (T cell hybridoma 24H1; H-2K^b context) | recognition by T cell hybridoma 24H1 (T cell hybridoma 24H1) | recognition by T cell hybridoma 4C8 (T cell hybridoma 4C8)
1 | AV-p3NY-NFATM [NY-gp34, nitrotyrosinated gp34, AV-p3NY-NFATM] | significantly reduced binding affinity; also recorded: significantly reduced when compared to gp33 and gp34 | considerably reducing the stability; also recorded: significantly reduced when compared to gp34; also recorded: significantly reduced capacity | ~10 °C | 47.3 ± 0.1 | 47.3 °C | 44.5±0.2 | to a higher level when compared to H-2K^b/NY-gp33 | recognized; also recorded: responded to stimulation | –
2 | AVYNFATM [gp34] | – | – | – | 56.7 ± 0.1 | 56.7 °C | 54.4±0.1 | – | did not recognize | –
3 | KAVYNFATM [gp33] | – | – | – | – | – | – | – | did not recognize | did not recognize
